How the values were obtained:
Assay type in all cases: cell-based, human
CCRF-CEM = test: NCI60 antitumor screening; conditions: 10 μM one-dose
HL-60(TB) = test: NCI60 antitumor screening; conditions: 10 μM one-dose
K-562 = test: NCI60 antitumor screening; conditions: 10 μM one-dose
MOLT-4 = test: NCI60 antitumor screening; conditions: 10 μM one-dose
RPMI-8226 = test: NCI60 antitumor screening; conditions: 10 μM one-dose
SR = test: NCI60 antitumor screening; conditions: 10 μM one-dose, Table 1
A549/ATCC = test: NCI60 antitumor screening; conditions: 10 μM one-dose
EKVX = test: NCI60 antitumor screening; conditions: 10 μM one-dose
HOP-62 = test: NCI60 antitumor screening; conditions: 10 μM one-dose
HOP-92 = test: NCI60 antitumor screening; conditions: 10 μM one-dose
NCI-H226 = test: NCI60 antitumor screening; conditions: 10 μM one-dose
NCI-H23 = test: NCI60 antitumor screening; conditions: 10 μM one-dose
NCI-H460 = test: NCI60 antitumor screening; conditions: 10 μM one-dose
NCI-H522 = test: NCI60 antitumor screening; conditions: 10 μM one-dose
COLO 205 = test: NCI60 antitumor screening; conditions: 10 μM one-dose
HCC-2998 = test: NCI60 antitumor screening; conditions: 10 μM one-dose
HCT-116 = test: NCI60 antitumor screening; conditions: 10 μM one-dose
HCT-15 = test: NCI60 antitumor screening; conditions: 10 μM one-dose
HT29 = test: NCI60 antitumor screening; conditions: 10 μM one-dose
KM12 = test: NCI60 antitumor screening; conditions: 10 μM one-dose
SW-620 = test: NCI60 antitumor screening; conditions: 10 μM one-dose
SF-268 = test: NCI60 antitumor screening; conditions: 10 μM one-dose
SF-295 = test: NCI60 antitumor screening; conditions: 10 μM one-dose
SF-539 = test: NCI60 antitumor screening; conditions: 10 μM one-dose
SNB-19 = test: NCI60 antitumor screening; conditions: 10 μM one-dose
SNB-75 = test: NCI60 antitumor screening; conditions: 10 μM one-dose
U251 = test: NCI60 antitumor screening; conditions: 10 μM one-dose
LOX IMVI = test: NCI60 antitumor screening; conditions: 10 μM one-dose
MALME-3M = test: NCI60 antitumor screening; conditions: 10 μM one-dose
M14 = test: NCI60 antitumor screening; conditions: 10 μM one-dose
MDA-MB-435 = test: NCI60 antitumor screening; conditions: 10 μM one-dose
SK-MEL-2 = test: NCI60 antitumor screening; conditions: 10 μM one-dose
SK-MEL-28 = test: NCI60 antitumor screening; conditions: 10 μM one-dose
SK-MEL-5 = test: NCI60 antitumor screening; conditions: 10 μM one-dose
UACC-257 = test: NCI60 antitumor screening; conditions: 10 μM one-dose
UACC-62 = test: NCI60 antitumor screening; conditions: 10 μM one-dose
IGROV1 = test: NCI60 antitumor screening; conditions: 10 μM one-dose
OVCAR-3 = test: NCI60 antitumor screening; conditions: 10 μM one-dose
OVCAR-4 = test: NCI60 antitumor screening; conditions: 10 μM one-dose, Table 1
OVCAR-5 = test: NCI60 antitumor screening; conditions: 10 μM one-dose
OVCAR-8 = test: NCI60 antitumor screening; conditions: 10 μM one-dose
NCI/ADR-RES = test: NCI60 antitumor screening; conditions: 10 μM one-dose
SK-OV-3 = test: NCI60 antitumor screening; conditions: 10 μM one-dose
786–0 = test: NCI60 antitumor screening; conditions: 10 μM one-dose, Table 1
A498 = test: NCI60 antitumor screening; conditions: 10 μM one-dose
ACHN = test: NCI60 antitumor screening; conditions: 10 μM one-dose
CAKI-1 = test: NCI60 antitumor screening; conditions: 10 μM one-dose
RXF 393 = test: NCI60 antitumor screening; conditions: 10 μM one-dose
SN12C = test: NCI60 antitumor screening; conditions: 10 μM one-dose
TK-10 = test: NCI60 antitumor screening; conditions: 10 μM one-dose
UO-31 = test: NCI60 antitumor screening; conditions: 10 μM one-dose
PC-3 = test: NCI60 antitumor screening; conditions: 10 μM one-dose
DU-145 = test: NCI60 antitumor screening; conditions: 10 μM one-dose
MCF7 = test: NCI60 antitumor screening; conditions: 10 μM one-dose
MDA-MB-231/ATCC = test: NCI60 antitumor screening; conditions: 10 μM one-dose
HS 578T = test: NCI60 antitumor screening; conditions: 10 μM one-dose
BT-549 = test: NCI60 antitumor screening; conditions: 10 μM one-dose
T-47D = test: NCI60 antitumor screening; conditions: 10 μM one-dose
MDA-MB-468 = test: NCI60 antitumor screening; conditions: 10 μM one-dose
NCI60 cell lines panel = test: NCI60 antitumor screening, full panel; conditions: 10 μM one-dose, mean over NCI60
Procedure: The National Cancer Institute (NCI), Bethesda, Maryland, United States, selected all of the novel synthesized compounds (2b–d, 3a–d and 4a–p) for in vitro antitumor screening at a single concentration of 10 μM toward the NCI60 cell lines panel covering leukaemia, non-small cell lungs, colon, central nervous system (CNS), melanoma, ovarian, renal, prostate, and breast cancer cells.[32–35] The data were reported as a mean graph of the percent growth of the treated cell lines and expressed as percentage growth inhibition (GI%) in Table 1 and ESI 1.
(2) The molar concentration of the compound responsible for total growth inhibition, also known as total growth inhibition (TGI).
Regarding subpanel selectivity toward certain cancer type, the method of determining a compound's selectivity index is to divide the full panel MG-MID (μM) value by each single subpanel. Values above six indicate high selectivity against the subpanel; moderate selectivity is denoted by values between three and six. Conversely, compounds are termed nonselective if their selectivity is less than three.[30,37]

N#Cc1c(-c2ccc(F)cc2)nc(SCc2ccc(F)cc2)[nH]c1=O [2b, 2-((4-Fluorobenzyl)thio)-4-(4-fluorophenyl)-6-oxo-1,6-dihydropyrimidine-5-carbonitrile]
GI% (CCRF-CEM): — (GI% < 10)
GI% (HL-60(TB)): 20.88%
GI% (K-562): — (GI% < 10)
GI% (K-562; Table 1): — ^b (GI value > 70%)
GI% (MOLT-4): — (GI% < 10)
GI% (RPMI-8226): — (GI% < 10)
GI% (SR): — (GI value > 70%)
GI% (A549/ATCC): 15.77%
GI% (EKVX): — (GI% < 10)
GI% (HOP-62): 16.84%
GI% (HOP-62; Table 1): — (GI value > 70%)
GI% (HOP-92): 19.25%
GI% (NCI-H226): 24.21%
GI% (NCI-H226; Table 1): — (GI value > 70%)
GI% (NCI-H23): 12.73%
GI% (NCI-H460): 13.27%
GI% (NCI-H522): 25.94%
GI% (COLO 205): — (GI% < 10)
GI% (HCC-2998): — (GI% < 10)
GI% (HCT-116): 33.39%
GI% (HCT-15): — (GI% < 10)
GI% (HT29): — (GI% < 10)
GI% (KM12): — (GI% < 10)
GI% (SW-620): — (GI% < 10)
GI% (SF-268): 24.67%
GI% (SF-295): 25.73%
GI% (SF-539): 45.33%
GI% (SF-539; Table 1): — (GI value > 70%)
GI% (SNB-19): 18.35%
GI% (SNB-75): 23.60%
GI% (SNB-75; Table 1): — (GI value > 70%)
GI% (U251): 33.40%
GI% (LOX IMVI): 10.55%
GI% (MALME-3M): — (GI% < 10)
GI% (M14): — (GI% < 10)
GI% (MDA-MB-435): — (GI% < 10)
GI% (SK-MEL-2): — (GI% < 10)
GI% (SK-MEL-28): — (GI% < 10)
GI% (SK-MEL-5): — (GI% < 10)
GI% (UACC-257): — (GI% < 10)
GI% (UACC-62): 11.33%
GI% (IGROV1): — (GI% < 10)
GI% (OVCAR-3): — (GI% < 10)
GI% (OVCAR-4): 73.14%
GI% (OVCAR-5): — (GI% < 10)
GI% (OVCAR-8): 48.04%
GI% (NCI/ADR-RES): 37.17%
GI% (SK-OV-3): 26.25%
GI% (786–0): 84.82%
GI% (A498): — (GI% < 10)
GI% (ACHN): 26.83%
GI% (CAKI-1): 24.10%
GI% (RXF 393): 28.91%
GI% (RXF 393; Table 1): — (GI value > 70%)
GI% (SN12C): 17.08%
GI% (TK-10): 17.90%
GI% (UO-31): 26.71%
GI% (PC-3): — (GI% < 10)
GI% (DU-145): — (GI% < 10)
GI% (MCF7): — (GI% < 10)
GI% (MDA-MB-231/ATCC): 39.26%
GI% (HS 578T): 24.34%
GI% (HS 578T; Table 1): — (GI value > 70%)
GI% (BT-549): — (GI% < 10)
GI% (T-47D): 25.99%
GI% (MDA-MB-468): 14.26%
Mean GI% (NCI60 cell lines panel): 16.01%

Reference: article PMC10620772, “Design, synthesis, and biological evaluation of new pyrimidine-5-carbonitrile derivatives as novel anti-cancer, dual EGFR^WT/COX-2 inhibitors with docking studies” (RSC Advances, 2023)
